Where “and” joins values, the source holds several entries; their conditions need not be identical. Equal entries are not always repeated. Where two headings read alike, the source gives them in different places.
Key:
[1] = target: T1, human cytomegalovirus UL97 protein kinase (Human cytomegalovirus, UniProt P16788); assay: UL97 in-cell-activity assay (transfected 293 cells + GCV; colour conversion / LDH read-out); assay type: cell-based
T1 construct: expressed in transfected cells
Method: Human embryonic kidney cells 293 (ATCC CRL-1573), as cultivated with DMEM medium containing 5% fetal calf serum (FCS), were harvested by trypsinization, rinsed with PBS and seeded in 96-well plates at a cell number of 20,000 per well.
Transfection (Lipofectamin Plus reagents, GibcoBRL) was performed at a cell layer confluency of 50-75%. For this, identical transfection conditions were chosen for 24 wells of the 96-well plate to obtain determinations over a 8-well line in triplicate. One transfection set-up for 24 wells was composed as follows:
Meanwhile, culture media of the 96-well plates were removed by the use of a multichannel pipette and a 50-μl volume of fresh DMEM-0% FCS was given in each well. Then, 25 μl of each transfection set-up was added per well. Plates were incubated for 5 h at 37° C. in a 5% CO2 atmosphere. Subsequent to this incubation, a 125-μl volume of DMEM-10% FCS was added per well and incubated over night at 37° C. in a 5% CO2 atmosphere.
Transfection media were removed from the cells by the use of a multichannel pipette. […]
Visual and photometric determinations of the colour conversion of the phenol red-supplemented culture medium was performed by the use of a computer scanner and an ELISA reader (OD 560 nm).
Measurement of the lactate dehydrogenase (LDH) acitivity in the residual cell layer was performed with the CytoTox 96 Non-Radioactive Cytotoxicity (Promega). […] Thereafter, 50 μl of stop buffer was added and the colour reaction was quantitated by the use of an ELISA reader (OD 490 nm). […]
Five days after addition of the substances, the read-out of signals was performed by the photometric quantification of the colour conversion of the culture medium and, for comparison, by the measurement of LDH activity in the residual cell layers. Qualitative/semi-quantitative illustrations are given by computer scanning figures in (a) for colour conversion, and in (b) for LDH activity. Quantitative values are presented as the results of photometric determinations in (c) for colour conversion, and in (d) for LDH activity. […]

[2] = tested on: UL97-transfected 293 cells (293UL); assay: Growth inhibition of 293UL cells by GCV (FIG. 11A); assay type: cell-based, human; conditions: for IC50: grown 90 h in presence of GCV
Method: 293 cells transfected with pUL97 expression construct (pcDNA3-UL97; see above under 2.1.) were grown for 14 d in presence of geneticin (750 μg/ml). Individual clones were isolated (minimal dilution), re-tested for geneticin resistance and for sensitivity to 100 μM GCV. Clones identified as geneticin resistant and GCV-sensitive were expanded and stored frozen in aliquots for further experiments, after having verified by Western blot their capacity to express UL97 protein.
293UL cells were routinely grown in DMEM supplemented with 10% FCS, glutamine (1%), pyruvate (1%), geneticin (final 0.5 mg G418/ml culture), and penicillin/streptomycin (1%). Medium was changed every 3-4 d, and cells were subcultured before reaching confluency by trypsin/EDTA treatment (exposure of adherent cells to 5 mg/ml trypsin and 2 mg/ml EDTA, dissolved in sterile 0.85% NaCl) and re-seeding in at least 5-fold dilution. Cells were maximally 10 times subcultured before a new frozen batch was used.
For routine antiproliferative assays, 293 UL cells were suspended at 13.8×10^3 cells/ml in complete medium, and 145 μl/well (2000 cells) of this suspension were seeded in 96-well flat-bottom plates (Nunclon #167008). After attachment of the cells for 24 h, drugs were added: All wells received 5 μl GCV (4 mM in complete medium, final concentration 100 μM), and each 3 wells received 50 μl compound (40 μM in complete medium+0.4% DMSO). A control series received 50 μl 40 μM compound only in the absence of GCV. Another control plate, which had received cells or medium only, was glutaraldehyde-fixed or frozen (see below) at the time of drug addition and stained for quantitation of cell density.
Cells were further incubated for 72 h and then analyzed for proliferation (staining with methylene blue or fluorescent dyes, see section 2.4).
A) UL97-transfected 293 cells 1,2,3,4: individual IC50 profiles (averages of triplicates); cells grown for 90 h in presence of GCV.

[3] = tested on: Non-transfected 293 cells devoid of UL97 kinase activity; assay: Growth inhibition of non-transfected 293 cells by GCV (FIG. 11B); assay type: cell-based, human
[4] = tested on: 293 cells transfected with wild-type or mutant pUL97 (K355M catalytically inactive); assay type: cell-based, human; conditions: 5 nM to 500 nM inhibitor, GCV 5-40 μM, wild-type and mutant pUL97, LDH 5 d posttransfection
From the text: If a test compound is capable of inhibiting the kinase, but additionally has a cytotoxic activity, no rescue from cell death would be observed. Thus, the method of the invention preferably comprises the additional step (e) distinguishing between (i) noncytotoxic test compounds having kinase inhibiting properties and (ii) test compounds having kinase inhibiting properties but additional cytotoxic side effects. Furthermore, the effect of a given test compound may be determined at several different concentrations of the test compound in order to obtain a more accurate information of the kinase inhibiting properties and possible unwanted cytotoxic side effects. […] In this manner, the concentration dependency and the target specificity of the inhibitory effect of the test compound and the concentration dependency of a possible cytotoxic effect may be determined together.
Substrate (e.g. ganciclovir) is then added in an appropriate concentration to transfected cells (as indicated in the diagram). […] As a measurement for cell death, either the colour conversion of the medium (containing phenol red as a pH indicator) can the quantified photometrically, or the LDH activity within the residual cell layer can be determined (resulting in low activities when extensive cell death has occurred). Other methods of quantification are also possible (e.g. measurement of cell proliferation). […]

## Cn1c2ccccc2c2c3c(c4c5ccccc5n(CCC#N)c4c21)CNC3=O [GÖ6976]
[1]; 5 nM and 50 nM inhibitor, GCV 2.5 and 5 μM, pl18neo-UL97, LDH activity after 5 days
  specific inhibition of UL97 activity: stronger at the 50-nM than at the 5-nM concentration
[1]; 50 nM inhibitor, GCV 1.25-160 μM, 5 days, colour conversion and LDH activity
  identification as UL97-specific inhibitor: identified as UL97-specific inhibitors
[1]; 500 nM inhibitor, GCV 2.5 and 5 μM, LDH activity after 5 days
  inhibition of UL97 activity at the highest concentration (decrease in LDH activity indicates cytotoxicity): markedly decreased

## Nc1nc(O)c2ncn(COC(CO)CO)c2n1 [GCV, ganciclovir]
[2]; 100 μM GCV, 3 d, methylene blue
  reduction of cell growth: 50%
[2]; Homo sapiens, HEK293, 90 h, average ± s.d. of 4 profiles, read-out: IC50 growth inhibition, average
  IC50: 26 ± 11 µM
[2]; read-out: individual IC50 profiles (averages of triplicates)
  IC50: 41 µM and 19 µM and 17 µM
[3]; Homo sapiens, HEK293, non-transfected 293 cells
  IC50: 3700 µM
[3]; up to 100 μM GCV
  effect on proliferation of wild-type 293 cells: not affected

## CN[C@@H]1C[C@H]2O[C@@](C)([C@@H]1OC)n1c3ccccc3c3c4c(c5c6ccccc6n2c5c31)C(=O)NC4 [STP, staurosporine]
[4]
  inherent (nonspecific) cytotoxicity versus specific pUL97 inhibition: nonspecific cytotoxicity

Reference: US20030152910A1, “Method for identification and quantification of kinase inhibitors” (priority 1999, published 2003)
